Assay results from US20040214900A1, “Method of treating strongyloides infections and medicaments therefor” (priority 2003, published 2004).
Like-named read-outs stand apart in the source and are kept apart here. Marks after values point to notes of the source that are not given here.

What was measured:
[1] = tested on: Strongyloides stercoralis infective larvae; assay: microbe, parasite or virus in culture; assay type: cell-based; details: for Relative activity (RA), mortality: RA of Compound (1) used as reference; for Lt50 (hours) ±95% Fiducial limits (FL), mortality time: S. stercoralis infective larvae; for mortality at 0.6 % strength: Strongyloides stercoralis, read-out: Larvae killed (mortality)
Procedure: (§1) Coproculture of about 30 g of fresh, moistened canine faeces was conducted using granular charcoal (1:1 v:v) in sealed 10 cm diameter Petri dishes. Cultures were maintained at 26° C. under semi-lighted conditions. S. stercoralis filariform larvae typically migrated to the surface of the culture and eventually into water droplets that condensed on the inner surface of the lid. Larvae appearing within 2 days were mostly those accruing from the homogonic cycle and usually occurred in insufficient numbers for bioassay. After five to eight days had elapsed free-living adult worms had effected a 50-fold increase in the population density (heterogonic cycle).
The lethality of the tested compounds was evaluated by incubating larvae obtained as in Example 1 in suspensions containing 0.6% of Compound (1) as the active ingredient (AI).
The mortality of the larvae was assessed by a dye exclusion test such as have been used successfully to indicate viability in parasitic platyhelminths. (See Halton & Arme (1971) Exp. Parasit. 30:54; Robinson & Arme (1985) Ann. Trop. Med. & Parasit. 79:17.) Similar testing was applied to S. stercoralis larvae. In these tests, use of
0.01% v/v eosin in LNSS (ELNSS) in an eosin-exclusion test indicated death of larvae in less than 10 minutes and had no effect on healthy individuals.

[2] = tested on: Strongyloides stercoralis infective larvae; assay: Immobilisation of S. stercoralis infective larvae incubated in 0.6% AI suspensions; assay type: cell-based; details: for Relative activity (RA), immobilisation / Larvae immobilized: 0.6% AI; for Relative activity (RA), immobilisation: RA of albendazole used as reference; for It50 (hours) ±95% Fiducial limits (FL), immobilisation time: 0.6% active ingredient, S. stercoralis infective larvae; for Larvae immobilized: within one hour's exposure
Procedure: as §1
The effectiveness of the tested compounds was evaluated by incubating larvae obtained as in Example 1 in suspensions containing 0.6% of Compound (1) as the active ingredient (AI). Incubation times were 1, 2, 3, 4, 5, 6, 24, 48, 72, and 96 hours. Three (3) replicates were run in each assay, using >>100 larvae per replicate.
The anthelmintic effectiveness of Compound (1) and of three commercial anthelmintics, namely albendazole, thiabendazole, and ivermectin, was evaluated, and the results are summarized in Table 1. Compound (1) immobilized 100% of the larvae within one hour's exposure. This was also true for ivermectin. However, similar concentrations of albendazole and thiabendazole immobilized 50% of the infective larvae only after 73.7 and 78.9 hours, respectively.

Row | Molecule | Relative activity (RA), mortality ([1]; 0.6% AI) | Lt50 (hours) ±95% Fiducial limits (FL), mortality time ([1]; 0.6% AI) | mortality at 0.6 % strength ([1]; 120 h) [%] | Relative activity (RA), immobilisation [2] | It50 (hours) ±95% Fiducial limits (FL), immobilisation time [2] | It50 (hours) ±95% Fiducial limits (FL), immobilisation time ([2]; listed as albendazole) [h] | Lt50 (hours) ±95% Fiducial limits (FL), mortality time ([1]; 0.6% AI, listed as ivermectin) [h] | Larvae killed (mortality) ([1]; after 24 hours, 0.6% AI) [%] | Larvae immobilized [2] [%] | It50 (hours) ±95% Fiducial limits (FL), immobilisation time ([2]; listed as thiabendazole) [h] | Lt50 (hours) ±95% Fiducial limits (FL), mortality time ([1]; 0.6% AI, listed as Compound(1)) | Fold increase in lethal activity over albendazole ([1]; Lt50 basis, 0.6% AI, versus albendazole) [fold] | Fold increase in lethal activity over ivermectin ([1]; Lt50 basis, 0.6% AI, versus ivermectin) [fold] | Fold increase in lethal activity over thiabendazole ([1]; Lt50 basis, 0.6% AI, versus thiabendazole) [fold] | mortality at 0.6 % strength ([1]; 6 h, after six hours, 0.6% AI) [%]
1 | CCCSc1ccc2nc(NC(=O)OC)[nH]c2c1 [Albendazole, albendazole] | 0.02 | 145.3 h | 37.4 | 1.00 | 73.7 (60.4-87.0) hours | 73.7 |  |  |  |  |  |  |  |  | 
2 | ivermectin | 0.14 | 15.7 (12.5-18.1) hours |  | >1.00 | <1* hours |  | 15.7 | 89.0 | 100 |  |  |  |  |  | 
3 | c1ccc2[nH]c(-c3cscn3)nc2c1 [Thiabendazole] | 0.01 | 178.9 h | 14.1 | 0.93 | 78.9 (65.5-92.8) hours |  |  |  |  | 78.9 |  |  |  |  | 
4 | CCCCCCCCC/C=C/C=O [Compound (1), E-2-dodecenal] | 1.00* | 2.2 h |  | >1.00 | <1* hours |  |  |  | 100 |  | 2.2 (1.2-3.3) hours | 66.1 | 7.1 | 81.3 | 90.8
